Assay results taken from patent US20230265405A1, “ENGINEERED NUCLEASES AND METHODS OF USE THEREOF” (Massachusetts Institute of Technology, priority 2022, published 2023).
Like-named read-outs stand apart in the source and are kept apart here.

How the values were obtained:
Assay type in all cases: cell-based, human
[1] = tested on: KRAS locus in HEK293T cells; assay: Prime editor variant screen with pegRNA and nicking gRNA (PE3), deep sequencing
Procedure: To measure precise editing and indel frequencies for these mutants, we combined them with a pegRNA and nicking gRNA (double-nicking prime editing, or PE3) that produces a small sequence replacement at the KRAS locus in HEK293T cells by prime editing and analyzed alterations using deep sequencing of the amplified locus.
(§1) We tested these engineered variants by applying prime editing with a pegRNA and nicking gRNA to convert a GFP transgene to BFP, similar to the HDR assay.
Cells were seeded in the maintenance medium without Pen-Strep into 24-well plates at 100,000 cells/well or 48-well plates at 50,000 cells/well. […] Transfections of HEK293T with prime editing vectors were carried out 24 hrs after seeding using 475 ng PE expression vector, 114 ng pegRNA expression vector, and 144 ng nicking gRNA expression vector (for PE3) formulated with 1.47-1.83 μL (equal volume/DNA) Lipofectamine 2000 at a total volume of 58.9-73.3 μL (equal DNA concentration) in OptiMEM I (ThermoFisher) per well for 24-well plates, or half these volumes for 48-well plates. For sequencing assays, genomic DNA was extracted 72 hrs after transfection using QuickExtract (Epicentre). For flow cytometry assays, cells were transferred to 6-well plates 72 hrs after transfection, split 7 days after transfection, and harvested 10 days after transfection in PBS with 5% FBS (ThermoFisher). […]

GFP transgene = assay: Prime editing GFP to BFP conversion with pegRNA and nicking gRNA, flow cytometry
From the text: as §1
(§2) We next examined whether vPE produces precise editing by again applying prime editing to convert a GFP transgene to BFP. […] As prime editors can produce indels without the prime edit, with the prime edit, or with the prime edit and pegRNA scaffold incorporation (Chen et al. Cell 184, 5635-5652.e29 (2021)), we further determined how these different indel types were affected.
Flow cytometry analysis was performed on an LSR Fortessa analyzer and data was collected using FACSDiva (BD Biosciences). Cells were first gated comparing SSC-A and FSC-A, then SSC-H and SSC-W, then FSC-H and FSC-W parameters to select for single cells. To assess editing frequencies, cells were gated for GFP (488 nm laser excitation, 530/30 nm filter detection) and BFP (405 nm laser excitation, 450/50 nm filter detection). To profile cell cycle stage, cells were gated for propidium iodide (561 nm laser excitation, 610/20 nm filter detection) and Alexa Fluor 647 (640 nm laser excitation, 670/30 nm filter detection). Flow cytometry data were analyzed using FlowJo (FlowJo).

[2] = tested on: several loci in HEK293T cells; assay: Prime editing with pegRNAs and nicking gRNAs (double-nicking, PE3) at several loci, deep sequencing; conditions: for precise editing frequencies (mean): mean across several loci; for precise editing frequencies: range across several loci
Procedure: We compared PEmax and PE for creating small edits at the EMX1, GFP, KRAS, and MYC loci in HEK293T cells.
as §2
(§3) Cells were seeded in the maintenance medium without Pen-Strep into 24-well plates at 100,000 cells/well or 48-well plates at 50,000 cells/well. […] Transfections of HEK293T with prime editing vectors were carried out 24 hrs after seeding using 475 ng PE expression vector, 114 ng pegRNA expression vector, and 144 ng nicking gRNA expression vector (for PE3) formulated with 1.47-1.83 μL (equal volume/DNA) Lipofectamine 2000 at a total volume of 58.9-73.3 μL (equal DNA concentration) in OptiMEM I (ThermoFisher) per well for 24-well plates, or half these volumes for 48-well plates. For sequencing assays, genomic DNA was extracted 72 hrs after transfection using QuickExtract (Epicentre). For flow cytometry assays, cells were transferred to 6-well plates 72 hrs after transfection, split 7 days after transfection, and harvested 10 days after transfection in PBS with 5% FBS (ThermoFisher). Repair templates, listed in Supplementary Table 4, were synthesized by IDT.
(§4) The targeted loci were amplified from extracted genomic DNA by PCR using Herculase II polymerase (Agilent). The PCR primers included Illumina sequencing handles as well as replicate-specific barcodes. These PCR products were then tagged with sample-specific barcodes and sequenced on an Illumina MiSeq. Primers, listed in Supplementary Table 5, were synthesized by IDT.
(§5) To measure editing outcomes, the high-throughput sequencing data were analyzed using CRISPResso2 25. Total editing rates were quantified as the fraction of edited reads out of total sequencing reads. Indel rates were quantified as the fraction of reads containing indels out of total sequencing reads. Precise editing rates were quantified as the fraction of reads containing a perfect match to the expected edit out of total sequencing reads. Frequencies of specific indel sizes were quantified as the fraction of reads containing these sizes out of all edited reads. Depletion of specific indel sizes by templated repair was quantified as the fractional reduction in the frequency of that indel size, comparing frequencies for when a template was present versus absent. Mean indel sizes were calculated as the mean of the absolute values of indel sizes weighted by their indel fractions.

[3] = tested on: several loci in HEK293T cells; assay: Prime editing with pegRNAs without nicking gRNAs (single-nicking, PE2) at several loci, deep sequencing; conditions: for indel frequencies: all loci; for precise editing frequencies (mean): mean across several loci; for precise editing frequencies: range across several loci
Procedure: Considering this broad suppression of all indel types, we also studied whether vPE reduced indel frequency at several loci in HEK293T cells using pegRNAs without nicking gRNAs (single-nicking prime editing, or PE2).
as §3, §4, §5

[4] = vPE versus PE, range across loci

Substance	precision, rank among PE variants [1]	precise editing frequency and indel frequency relative to PE ([1]; dual-mutation variants, KRAS locus)	indels and precise editing, GFP to BFP conversion (GFP transgene)	indels and precise editing, GFP to BFP conversion (GFP transgene; listed as K848A-H982A)	indels resulting from prime editing ([2]; all loci)	frequencies of each indel type ([2]; indels without prime edit, with prime edit, with pegRNA scaffold incorporation)	precise editing frequencies (mean) [2] [%]	precise editing frequencies [2]	suppression of indel frequency (mean) ([2]; vPE versus PE, mean) [fold]	suppression of indel frequency [2, 4]	indel types [3]	indel frequencies [3]	precise editing frequencies (mean) [3] [%]	precise editing frequencies [3]	suppression of indel frequency (mean) ([3]; vPE versus PE, mean) [fold]	suppression of indel frequency [3, 4]
vPE: PE prime editor with K848A-H982A in the Cas9 nickase, SEQ ID NO: 294	most precise variant	increased precise editing frequency and reduced indel frequency	efficient precise gene conversion with limited indels	nearly eliminated indels while promoting precise editing	nearly eliminated indels	decreasing the frequencies of each indel type	82.5	57.7-97.4%	4.7	2.0- to 13.0 fold	reductions in all indel types	lower indel frequencies	90.5	84.2-98.4%	1.7	1.1- to 2.5 fold
PE: Prime editor: variant of PEmax with the R221K and N394K mutations reverted; SEQ ID NO: 293 (nucleic acid 286)							49.1	14.7-69.8%				fairly low indel frequencies	82.7	72.3-98.2%		
